# Key:
# [1] = tested on: adult Fischer 344 male rat brains; experiment: Adult brain tissue reaction to PNPX loaded HFMs implanted into rat brain (immunohistochemistry); type: in vivo; settings: constant release into local brain tissue, compared to blank control HFM; anti-GFAP and anti-CSPG staining; FIG. 6
# From the text: Following adult central nervous system (CNS) injury, resident cells and blood-derived inflammatory cells become activated and migrate to the lesion site, eventually form a dense glial scar that is believed to play a significant role in inhibiting CNS regeneration. The inhibitory nature of the glial scar is due not only to the existence of inflammatory cell types, but also to the ECM molecules that are derived from them. […] Blocking CSPG biosynthesis may be a potential means to ameliorate CNS glial scar formation. […] CSPG inhibitor 4-nitrophenyl-β-D-xylopyranoside (PNPX) was incorporated into the HFMs during the fabrication process. The inflammatory responses of adult brain tissue to the HFMs with or without PNPX were evaluated and compared.
# Polyacrylonitrile/polyvinylchloride copolymer (PAN/PVC) was used as a model non-degradable polymer as a carrier for PNPX delivery, and poly(DL-Lactide-co-glycolide) (PLGA) 50/50 copolymers was employed as a model degradable polymer for PNPX delivery. Polymer-PNPX was dissolved in dimethyl sulfoxide (DMSO). 1% phthalized-chitosan was added into the solution to enhance the PNPX loading efficiency. PNPX loaded HFMs were fabricated using a wet phase-inversion technique. PNPX loading efficiency and releasing profiles were studied in vitro using HPLC. […]
# [2] = tested on: Human umbilical cord stem cells; experiment: Survival of stem cells transplanted into brain tissue after exposure to a hypoxia simulating agent; type: in vivo; settings: cells exposed to 50 uM/ml for 12 hours before transplantation into brain tissue; vs untreated group
# Experimental: Human umbilical cord stem cells were exposed to 50 uM/ml ethyl 3,4-dihydroxybenzoate for 12 hours before transplanted into brain tissue to improve their tolerance to hypoxia condition at the injection site after transplantation procedure. Ethyl 3,4-dihydroxybenzoate can increase glucose uptake and glycolytic metabolism of cells. Increased glucose uptake and glycolytic metabolism is an important compensatory mechanism that allows ATP production to be maintained. Such an approach also increases resistance of the transplanted cells to metabolic poison. The resulting transplanted cells will be adjusted to a deficiency of oxygen and, thus, more resistant to transplantation procedures. The survival rate of the transplanted cells is higher for ethyl 3,4-dihydroxybenzoate treated group than that for untreated group.
SMILES,glial scarring response in the vicinity of the PNPX loaded HFM [1],survival rate of the transplanted cells [2]
"O=[N+]([O-])c1ccc(O[C@@H]2OC[C@@H](O)[C@H](O)[C@H]2O)cc1 [PNPX, 4-nitrophenyl-β-D-xylopyranoside]",significantly (P<0.05) suppressed,
"CCOC(=O)c1ccc(O)c(O)c1 [ethyl 3,4-dihydroxybenzoate]",,higher
